Measurements from US8716183B2, “Control of aquatic weeds with endothall and ALS-inhibiting agent” (SePro Corporation, priority 2008, dated 2014).

Assays:
hydrilla [1] = experiment: Imazamox+endothall under static exposure to hydrilla, GR50 and Isobole analysis; format: in vivo, Hydrilla verticillata; conditions: harvested 34 days after treatment, n = 3, endothall as a.e., combinations as total ppb
Description: (§1) Single apical meristems of hydrilla, collected from Florida, were planted into small pots (13.5 cm length×3.75 cm diameter) containing Wallace Farm® topsoil amended with 14-14-14 slow release Osmocote® fertilizer (˜2.5 g Osmocote/kg soil) on 4 Nov. 2008. Approximately 5 to 7 cm of the apical section extended above the sediment at planting, and a sand cap was placed over the potting soil (˜2 cm deep). Plants were then transferred to a 12 L acrylic tanks filled with well water. Tanks were maintained in a growth room with 14:10 h photoperiod at 26° C. Plants were allowed to establish growth for 10 days before treatment.
(§2) Treatments were replicated three times in a completely randomized design. […] All concentrations are expressed as a.e. for endothall.
(§3) All above ground biomass was harvested 34 days after treatment. Biomass was dried to constant moisture at 70° C., and dry weights were determined. Data were subjected to regression analysis using Sigma Plot software, and a GR50 was determined (concentration causing a 50% reduction in dry weight). All data were analyzed for synergism/antagonism using the Isobole analysis at the 95% confidence level (estimated using linear interpolation from 95% confidence bands) (refer to Example 2 for more information on Isobole analysis).

hydrilla [2] = experiment: Penoxsulam+endothall under static exposure to hydrilla, GR50 and Isobole analysis; format: in vivo, Hydrilla verticillata; conditions: harvested 55 days after treatment, n = 3, endothall as a.e., combinations as total ppb
Description: as §1, with “on 18 Jul.” for “on 4 Nov.”, “for 14” for “for 10”
as §2
as §3, with “55” for “34”, “(Berenbaum, M. C. 1989, Pharmacological Reviews. 41:93-141; Streibig, J. C. 2003, Assessment of herbicide effects: http://www.ewrs.org/et/images/, Herbicide interaction.pdf). […]” for “(refer to Example 2 for more information on Isobole analysis).”

hydrilla [3] = conditions: cited from earlier work
hydrilla [4] = experiment: Penoxsulam+endothall under multiple exposures to hydrilla, dry weight and Colby analysis; format: in vivo, Hydrilla verticillata; conditions: for Mean dry weight of hydrilla: penoxsulam 0.02, endothall 0.68 mg/L a.e.; for OBSERVED RESPONSE: penoxsulam 0.02, endothall 0.68 mg/L; for hydrilla biomass compared to untreated controls (LSD, p = 0.05): penoxsulam 0.02 or endothall 0.68 mg/L a.e. alone, 3 to 48 day exposures
Description: Apical sections (12 to 15 cm in length) of hydrilla, collected from Florida, were planted into small pots (13.5 cm length×3.75 cm diameter) containing Wallace Farm® topsoil amended with 14-14-14 slow release Osmocote® fertilizer (˜2.5 g Osmocote/kg soil) on 16 Oct. 2008. Approximately 5 to 7 cm of the apical section extended above the sediment at planting, and a sand cap was placed over the potting soil (˜2 cm deep). Plants were then transferred to a 12 L acrylic tanks filled with well water. Tanks were maintained in a growth room with 14:10 h photoperiod at 26° C. Plants were allowed to grow for 8 days before the following treatments were initiated in triple replicate: • A) Untreated controls • B) Penoxsulam at 0.02 mg/L • C) Endothall at 0.68 mg/L a.e. • D) Simultaneous treatment • a. Penoxsulam 0.02 mg/L+endothall at 0.68 mg/L • i. Exposure times • 1. 3 days • 2. 6 days • 3. 12 days • 4. 24 days • 5. 48 days (static) • E) Sequential treatment • a. Penoxsulam 0.02 mg/L, add 0.68 mg/L endothall 24 days later—static exposure to combination • b. Endothall at 0.68 mg/L, add 0.02 mg/L penoxsulam 24 days later—static exposure to combination • c. Penoxsulam 0.02 mg/L, add 0.68 mg/L endothall 12 days later—12 day exposure to combination • d. Endothall at 0.68 mg/L, add 0.02 mg/L penoxsulam 12 days later—12 day exposure to combination • e. Penoxsulam 0.02 mg/L, add 0.68 mg/L endothall 6 days later—6 day exposure to combination • f. Endothall at 0.68 mg/L, add 0.02 mg/L penoxsulam 6 days later—6 day exposure to combination
Endothall was formulated as Aquathol K® (4.23 #/gallon dipotassium salt, or 3#/gallon a.e.); penoxsulam was formulated as Galleon SC® (2#/gallon active ingredient). All concentrations are expressed as a.e. for endothall. At each exposure time, plants were removed from treatments and placed in a tank with fresh water containing no herbicide (including controls) to remove the aqueous exposure and allow for recovery.
Plants were harvested at 48 days after initial treatment. At harvest, plants were rinsed free of algae and placed in paper sacks in a drying oven for 4 days at 70° C. temperature. Mean dry weights were determined and means separated using least significant differences. Difference between observed and expected responses was determined to evaluate potential interactions using methods reported by Colby (Colby S. R. 1967. Weeds. 15:20-22).

[5] = tested on: hydrilla (Hydrilla verticillata); experiment: Field Study 1: hydrilla control in a 6 acre lake divided into three zones; format: in vivo; conditions: 21 days after treatment
Experimental: A 6 acre somewhat rectangular-shaped lake was divided into three 2 acre zones for this testing. A 2-acre test site (Zone 1), located on the northern one-third of the lake, was treated with a penoxsulam plus endothall combination in order to evaluate control of the exotic aquatic weed, hydrilla (Hydrilla verticillata). Within a 50 gallon spray tank system powered by a 5.5 Hp Honda motor, 0.523 gallons Galleon SC (a commercially available penoxsulam formulation) and 12.7 gallons Aquathol K (a commercially available endothall formulation) were added to 36.78 gallons of water. The herbicide combination mixture delivered an application dose of 15 parts per billion penoxsulam and 0.71 ppm a.e. endothall to Zone 1. This herbicide mixture was evenly injected using a trailing hose over the airboat bow throughout the 2 acre Zone 1. On the day of treatment, Zone 1 contained approximately 90% hydrilla coverage, with growth near or at the water surface.
The remaining 4 acres (both Zone 2 (central one-third) and Zone 3 (southern one-third)) of the lake were treated with 15 ppb penoxsulam alone on the same day. Both Zones 2 and 3 contained approximately 90-95% hydrilla coverage at that time.
Twenty one days following the initial treatment, the hydrilla was assessed for herbicidal injury within Zones 1, 2, and 3. […] Approximately 10% of the original plant volume remained near the water's surface; the balance had fallen to the lake bottom. The same was true for a 1 acre area contiguous down lake to Zone 1 moving into Zone 2. All remaining hydrilla plants suspended in the water column within the 3 acres were expressing severe injury.
On this date, 0.71 ppm a.e. endothall (12.7 gallons Aquathol K) was applied to Zone 3 in order to evaluate contact herbicidal efficacy 21 days following a penoxsulam treatment.

[6] = 3-d exposure, harvested 48 days after initial treatment, n = 3
[7] = 6-d exposure (f/b: second agent added 6 days later, 6 day exposure to combination), harvested at 48 days
[8] = 12-d exposure (f/b: second agent added 12 days later, 12 day exposure to combination), harvested at 48 days
[9] = 24-d exposure (f/b: second agent added 24 days later, static exposure to combination), harvested at 48 days
[10] = 48-d (static) exposure, harvested at 48 days
[11] = Zone 3 and southern portion of Zone 2, 15 ppb penoxsulam alone

Row | SMILES | GR50 (concentration causing a 50% reduction in dry weight) (hydrilla [1]) [ppb] | GR50 (concentration causing a 50% reduction in dry weight) (hydrilla [2]) [ppb] | hydrilla control (hydrilla [3]; 0.71 ppm a.e. endothall partial area/spot treatment, general) | time before hydrilla plants defoliate and drop toward the lake bottom (hydrilla [3]; 1.4 to 3.5 ppm a.e. endothall, typical, dependent on plant maturity) | contact with hydrilla required to achieve effective control (hydrilla [3]; Netherland et al. 1991) | Mean dry weight of hydrilla (hydrilla [4]; [6]) | Mean dry weight of hydrilla (hydrilla [4]; [7]) | Mean dry weight of hydrilla (hydrilla [4]; [8]) | Mean dry weight of hydrilla (hydrilla [4]; [9]) | Mean dry weight of hydrilla (hydrilla [4]; [10]) | OBSERVED RESPONSE (hydrilla [4]; exposure 3 days) | OBSERVED RESPONSE (hydrilla [4]; exposure 6 days) | OBSERVED RESPONSE (hydrilla [4]; exposure 12 days) | OBSERVED RESPONSE (hydrilla [4]; exposure 24 days) | OBSERVED RESPONSE (hydrilla [4]; exposure 48 days) | hydrilla biomass compared to untreated controls (LSD, p = 0.05) (hydrilla [4]) | time before severe injury is expressed (hydrilla [3]; penoxsulam treated hydrilla, typical) | hydrilla control [5, 11] | hydrilla remaining near the water's surface [5, 11] | herbicidal injury of hydrilla ([5]; Zones 2 and 3, 15 ppb penoxsulam alone)
1 | O=C(O)[C@@H]1[C@H](C(=O)O)[C@H]2CC[C@@H]1O2 [Endothall, 3,6-endoxohexahydrophthalic acid] | 520 | 309 | essentially no hydrilla control | 2-6 weeks | less than 72 hours | 2.24b | 2.61ab | 2.72c | 2.14bc | 1.62b | 64% of control | 62% of control | 48% of control | 47% of control | 35% of control | reduced hydrilla biomass compared to untreated controls at all exposure periods, except 3 and 6-day |  |  |  | 
2 | COCc1cnc(C2=NC(C)(C(C)C)C(=O)N2)c(C(=O)O)c1 (stereo not drawn) [Imazamox] | 680 |  |  |  |  |  |  |  |  |  |  |  |  |  |  |  |  |  |  | 
3 | COc1cnc(OC)n2nc(NS(=O)(=O)c3c(OCC(F)F)cccc3C(F)(F)F)nc12 [Penoxsulam, 2-(2,2-difluoroethoxy)-6-trifluoromethyl-N-(5,8-dimethoxy[1,2,4]triazolo[1,5c]pyrimidin-2-yl)benzenesulfonamide] |  | 12 |  |  |  | 4.01a | 3.97a | 3.68ab | 3.24ab | 2.41ab | 115% of control | 95% of control | 97% of control | 72% of control | 52% of control | not significantly different from untreated controls | about 60 days | no control was observed | Approximately 90% | slight but expected penoxsulam injury
